Reference: US10590140B2, “Tetrahydropyrimidodiazepine and dihydropyridodiazepine compounds for treating pain and pain related conditions” (ESTEVE PHARMACEUTICALS, S.A., priority 2016, dated 2020)

Target: human α2δ-1 subunit of Cav2.2 calcium channel (Homo sapiens (Human), UniProt P54289)
Assay: Binding assay to human α2δ-1 subunit of Cav2.2 calcium channel ([3H]-Gabapentin)
Conditions: binding to α2δ-1, [3H]-Gabapentin; read-out: Ki (nM) α2δ-1
Method in brief: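 Radioactivity on dried GF/C filters quantified by scintillation after filtration and three cold Tris-HCl (pH 7.4) washes. Incubation ran 60 min at 27° C with [3H]-gabapentin; 10 μM pregabalin gave nonspecific binding.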

human α2δ-1 subunit of Cav2.2 calcium channel, sequence (P54289 25-1103): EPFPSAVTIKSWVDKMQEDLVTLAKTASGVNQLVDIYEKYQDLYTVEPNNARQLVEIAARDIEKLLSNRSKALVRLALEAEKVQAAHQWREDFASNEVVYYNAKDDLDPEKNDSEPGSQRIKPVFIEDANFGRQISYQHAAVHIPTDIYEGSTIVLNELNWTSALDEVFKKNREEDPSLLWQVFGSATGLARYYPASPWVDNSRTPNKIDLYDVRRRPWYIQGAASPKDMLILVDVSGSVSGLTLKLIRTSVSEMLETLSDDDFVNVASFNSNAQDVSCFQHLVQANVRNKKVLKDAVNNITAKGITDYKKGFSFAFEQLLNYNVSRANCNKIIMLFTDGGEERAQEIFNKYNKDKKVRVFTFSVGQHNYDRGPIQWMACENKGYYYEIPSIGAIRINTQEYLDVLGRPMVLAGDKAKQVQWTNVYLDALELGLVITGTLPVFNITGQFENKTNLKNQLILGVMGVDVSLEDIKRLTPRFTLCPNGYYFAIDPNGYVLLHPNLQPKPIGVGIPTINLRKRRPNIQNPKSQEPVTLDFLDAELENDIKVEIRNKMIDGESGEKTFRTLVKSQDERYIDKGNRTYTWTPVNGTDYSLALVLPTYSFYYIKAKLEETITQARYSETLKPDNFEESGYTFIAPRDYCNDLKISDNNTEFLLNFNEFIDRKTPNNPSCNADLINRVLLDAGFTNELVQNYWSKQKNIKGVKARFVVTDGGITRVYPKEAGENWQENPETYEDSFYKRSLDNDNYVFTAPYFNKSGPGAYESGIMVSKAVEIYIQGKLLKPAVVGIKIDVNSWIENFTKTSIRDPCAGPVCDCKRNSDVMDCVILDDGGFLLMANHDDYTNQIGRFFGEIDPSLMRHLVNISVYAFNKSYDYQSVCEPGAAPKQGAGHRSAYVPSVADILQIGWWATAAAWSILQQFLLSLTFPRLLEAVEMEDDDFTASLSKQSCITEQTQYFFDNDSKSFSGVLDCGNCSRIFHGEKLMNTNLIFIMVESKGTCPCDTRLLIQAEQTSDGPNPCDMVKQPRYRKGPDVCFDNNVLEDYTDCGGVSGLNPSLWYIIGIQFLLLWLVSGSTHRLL

| SMILES | Ki [nM] |
| --- | --- |
| CN(CCC(Oc1cccc(N2CCN(C)c3cc(N(C)C)ncc3C2=O)c1)c1cccs1)C(=O)OCC[Si](C)(C)C (stereo not shown) [Example 59, 2-(trimethyl-silyl)ethyl (3-(3-(8-(dimethylamino)-1-methyl-5-oxo-1,2,3,5-tetrahydro-4H-pyrido[4,3-e] [1,4]diazepin-4-yl)phenoxy)-3-(thiophen-2-yl)propyl)(methyl) carbamate] | > 3000 |
| CCNc1ncc2c(n1)N(C)CCN(c1cccc(-c3noc(C)n3)c1)C2=O [Example 108, 2-(ethylamino)-9-methyl-6-(3-(5-methyl-1,2,4-oxadiazol-3-yl)phenyl)-6,7,8,9-tetrahydro-5H-pyrimido[4,5-e][1,4]diazepin-5-one] | 100 to 500 |
| CNCC[C@H](Oc1ccc(CN2CCN(C)c3nc(OC)ncc3C2=O)c(C)c1)c1cccs1 [Example 397, (S)-2-methoxy-9-methyl-6-(2-methyl-4-(3-(methylamino)-1-(thiophen-2-yl)propoxy)benzyl)-6,7,8,9-tetrahydro-5H-pyrimido[4,5-e][1,4]diazepin-5-one] | < 100 |
| CCNc1ncc2c(n1)N(C)CCN(c1cccc(-n3cc(CCN(C)CCc4ccccc4)nn3)c1)C2=O [Example 249, 2-(ethylamino)-9-methyl-6-(3-(4-(2-(methyl(phenethyl)amino)ethyl)-1H-1,2,3-triazol-1-yl)phenyl)-6,7,8,9-tetrahydro-5H-pyrimido[4,5-e][1,4]diazepin-5-one] | 100 to 500 |
| CSc1ncc2c(n1)N(C)CCN(c1cccc(-n3cc(CCN(C)C(=O)OC(C)(C)C)nn3)c1)C2=O [Example 43, tert-butyl methyl(2-(1-(3-(9-methyl-2-(methylthio)-5-oxo-5,7,8,9-tetrahydro-6H-pyrimido[4,5-e][1,4]diazepin-6-yl)phenyl)-1H-1,2,3-triazol-4-yl)ethyl) carbamate] | > 3000 |
| CCNc1ncc2c(n1)N(C)CCN(c1cccc(OCCCNC)c1)C2=O [Example 168, 2-(ethylamino)-9-methyl-6-(3-(3-(methylamino)propoxy)phenyl)-6,7,8,9-tetrahydro-5H-pyrimido[4,5-e][1,4]diazepin-5-one] | 100 to 500 |
| CN(CCC(Oc1cccc(N2CCN(C)c3cc(Cl)ncc3C2=O)c1)c1cccs1)C(=O)OCC[Si](C)(C)C (stereo not shown) [Example 297, 2-(trimethylsilyl)ethyl (3-(3-(8-chloro-1-methyl-5-oxo-1,2,3,5-tetrahydro-4H-pyrido[4,3-e][1,4]diazepin-4-yl)phenoxy)-3-(thiophen-2-yl)propyl)(methyl) carbamate] | > 3000 |
| CSc1ncc2c(n1)N(C)CCN(Cc1ccc(CN(C)C(=O)OC(C)(C)C)cc1)C2=O [Example 64, tert-butyl methyl(4-((9-methyl-2-(methylthio)-5-oxo-5,7,8,9-tetrahydro-6H-pyrimido[4,5-e][1,4]diazepin-6-yl)methyl)benzyl) carbamate] | > 3000 |
| CCNc1ncc2c(n1)N(C)CCN(c1cccc(-c3nnc(CNC)o3)c1)C2=O [Example 187, 2-(ethylamino)-9-methyl-6-(3-(5-((methylamino)methyl)-1,3,4-oxadiazol-2-yl)phenyl)-6,7,8,9-tetrahydro-5H-pyrimido[4,5-e][1,4]diazepin-5-one] | > 3000 |
| CCNc1ncc2c(n1)N(C)CCN(c1ccccc1OC(CNC)c1ccccc1)C2=O (stereo not shown) [Example 338, 2-(ethylamino)-9-methyl-6-(2-(2-(methylamino)-1-phenylethoxy)phenyl)-6,7,8,9-tetrahydro-5H-pyrimido[4,5-e][1,4]diazepin-5-one] | > 3000 |
| CSc1ncc2c(n1)N(C)CCN(c1cccc(C#N)c1)C2=O [Example 33, 3-(9-methyl-2-(methylthio)-5-oxo-5,7,8,9-tetrahydro-6H-pyrimido[4,5-e][1,4]diazepin-6-yl)benzonitrile] | > 3000 |
| CSc1ncc2c(n1)N(C)CCN(c1cccc(-n3cnc(CN(C)C(=O)OC(C)(C)C)c3)c1)C2=O [Example 46, tert-butyl methyl((1-(3-(9-methyl-2-(methylthio)-5-oxo-5,7,8,9-tetrahydro-6H-pyrimido[4,5-e][1,4]diazepin-6-yl)phenyl)-1H-imidazol-4-yl)methyl) carbamate] | > 3000 |
| COc1ncc2c(n1)N(C)CCN(c1cccc(COC(CCN(C)C(=O)OC(C)(C)C)c3cccs3)c1)C2=O (stereo not shown) [Example 139, tert-butyl (3-((3-(2-methoxy-9-methyl-5-oxo-5,7,8,9-tetrahydro-6H-pyrimido[4,5-e][1,4]diazepin-6-yl)benzyl)oxy)-3-(thiophen-2-yl)propyl)(methyl)carbamate] | > 3000 |
| CCNc1ncc2c(n1)N(C)CCN(c1cccc(CCN(C)CCc3ccccc3)c1)C2=O [Example 270, 2-(ethylamino)-9-methyl-6-(3-(2-(methyl(phenethyl)amino)ethyl)phenyl)-6,7,8,9-tetrahydro-5H-pyrimido[4,5-e][1,4]diazepin-5-one] | 100 to 500 |
| CCNc1ncc2c(n1)N(C)CCN(c1cccc(COC(CCN(C)C(=O)OC(C)(C)C)c3cccs3)c1)C2=O (stereo not shown) [Example 83, tert-butyl (3-((3-(2-(ethylamino)-9-methyl-5-oxo-5,7,8,9-tetrahydro-6H-pyrimido[4,5-e][1,4]diazepin-6-yl)benzyl)oxy)-3-(thiophen-2-yl)propyl)(methyl) carbamate] | > 3000 |
| CCNc1ncc2c(n1)N(C)CCN(c1cccc(OC3CCN(C(=O)OC(C)(C)C)C3)c1)C2=O (stereo not shown) [Example 95, tert-butyl 3-(3-(2-(ethylamino)-9-methyl-5-oxo-5,7,8,9-tetrahydro-6H-pyrimido[4,5-e][1,4]diazepin-6-yl)phenoxy)pyrrolidine-1-carboxylate] | > 3000 |
| CSc1ncc2c(n1)N(C)CCN(c1cccc(-n3cc(CN(C)C(=O)OC(C)(C)C)cn3)c1)C2=O [Example 45, tert-butyl methyl((1-(3-(9-methyl-2-(methylthio)-5-oxo-5,7,8,9-tetrahydro-6H-pyrimido[4,5-e][1,4]diazepin-6-yl)phenyl)-1H-pyrazol-4-yl)methyl) carbamate] | > 3000 |
| CSc1ncc2c(n1)N(C)CCN(c1cccc(O[C@H](CCN(C)C(=O)OC(C)(C)C)c3ccccc3)c1)C2=O [Example 2, tert-butyl (R)-methyl(3-(3-(9-methyl-2-(methylthio)-5-oxo-5,7,8,9-tetrahydro-6H-pyrimido[4,5-e][1,4]diazepin-6-yl)phenoxy)-3-phenylpropyl) carbamate] | > 3000 |
| CCNc1ncc2c(n1)N(C)CCN(c1cccc(-n3cnc(CNC)c3)c1)C2=O [Example 186, 2-(ethylamino)-9-methyl-6-(3-(4-((methylamino)methyl)-1H-imidazol-1-yl)phenyl)-6,7,8,9-tetrahydro-5H-pyrimido[4,5-e][1,4]diazepin-5-one] | 100 to 500 |

Results, then the compound that gave them:

| Ki [nM] | SMILES |
| --- | --- |
| 100 to 500 | CCNc1ncc2c(n1)N(C)CCN(c1cccc(-n3cc(CN4CCC5(CC4)CN(C(C)C)C(=O)[C@@H](C)O5)nn3)c1)C2=O [Example 284, (R)-9-((1-(3-(2-(ethylamino)-9-methyl-5-oxo-5,7,8,9-tetrahydro-6H-pyrimido[4,5-e] [1,4]diazepin-6-yl)phenyl)-1H-1,2,3-triazol-4-yl)methyl)-4-isopropyl-2-methyl-1-oxa-4,9-diazaspiro[5.5] undecan-3-one] |
| > 3000 | CSc1ncc2c(n1)N(C)CCN(c1cccc(OCCCN(C)C(=O)OC(C)(C)C)c1)C2=O [Example 20, tert-butyl methyl(3-(3-(9-methyl-2-(methylthio)-5-oxo-5,7,8,9-tetrahydro-6H-pyrimido[4,5-e][1,4]diazepin-6-yl)phenoxy)propyl) carbamate] |
| > 3000 | COCCNc1ncc2c(n1)N(C)CCN(c1cccc(-c3nnc(C)o3)c1)C2=O [Example 99, 2-((2-methoxyethyl)amino)-9-methyl-6-(3-(5-methyl-1,3,4-oxadiazol-2-yl)phenyl)-6,7,8,9-tetrahydro-5H-pyrimido[4,5-e][1,4]diazepin-5-one] |
| > 3000 | CCNc1ncc2c(n1)N(C)CCN(Cc1ccc(CN(C)C(=O)OC(C)(C)C)cc1)C2=O [Example 137, tert-butyl (4-((2-(ethylamino)-9-methyl-5-oxo-5,7,8,9-tetrahydro-6H-pyrimido[4,5-e][1,4]diazepin-6-yl)methyl)benzyl) (methyl)carbamate] |
| > 3000 | CSc1ncc2c(n1)N(C)CCN(c1cccc(-c3noc(C)n3)c1)C2=O [Example 31, 9-methyl-6-(3-(5-methyl-1,2,4-oxadiazol-3-yl)phenyl)-2-(methylthio)-6,7,8,9-tetrahydro-5H-pyrimido[4,5-e][1,4]diazepin-5-one] |
| 100 to 500 | CCNc1ncc2c(n1)N(C)CCN(c1cccc(-n3cc(CCN(C)C)nn3)c1)C2=O [Example 248, 6-(3-(4-(2-(dimethylamino)ethyl)-1H-1,2,3-triazol-1-yl)phenyl)-2-(ethylamino)-9-methyl-6,7,8,9-tetrahydro-5H-pyrimido[4,5-e][1,4]diazepin-5-one] |
| > 3000 | CCNc1ncc2c(n1)N(C)CCN(c1ccccc1COC(CCNC)c1ccccc1)C2=O (stereo not shown) [Example 337, 2-(ethylamino)-9-methyl-6-(2-((3-(methylamino)-1-phenylpropoxy)methyl)phenyl)-6,7,8,9-tetrahydro-5H-pyrimido[4,5-e][1,4]diazepin-5-one] |
| > 3000 | CSc1ncc2c(n1)N(C)CCN(c1cccc(OC3CCN(C(=O)OC(C)(C)C)C3)c1)C2=O (stereo not shown) [Example 27, tert-butyl 3-(3-(9-methyl-2-(methylthio)-5-oxo-5,7,8,9-tetrahydro-6H-pyrimido[4,5-e][1,4]diazepin-6-yl)phenoxy) pyrrolidine-1-carboxylate] |
| 500 to 3000 | CCNc1ncc2c(n1)N(C)CCN(c1cccc(-n3cc(CCN(C)Cc4ccccc4)nn3)c1)C2=O [Example 247, 6-(3-(4-(2-(benzyl(methyl)amino)ethyl)-1H-1,2,3-triazol-1-yl)phenyl)-2-(ethylamino)-9-methyl-6,7,8,9-tetrahydro-5H-pyrimido[4,5-e][1,4]diazepin-5-one] |
